The species named for assay [1] is Rattus norvegicus. The experiment in a line: Antihypertensive activity expressed as percentage of base-line systolic blood pressure of base-line values in spontaneously hypertensive rats (SHR) was reported after 24 hr. Note: test concentration or dose not given here. In kind it is functional, Artery.
The species entered for assay [2] is Rattus norvegicus. In words: Antihypertensive activity expressed as percentage of base-line systolic blood pressure of base-line values in spontaneously hypertensive rats (SHR) was reported after 4 hr. Note: test concentration or dose not given here. In kind it is functional, Artery.
The species entered for assay [3] is Rattus norvegicus. In words: Antihypertensive activity expressed as percentage of base-line systolic blood pressure of base-line values in spontaneously hypertensive rats (SHR) was reported after 2 hr. Note: test concentration or dose not given here. In kind it is functional, Artery.
In assay [4] the target is Beta-1 adrenergic receptor (Rattus norvegicus) (UniProt P18090). Particulars: read-out: pA2 (converted).
For assay [5] the target is unchanged. The experiment in a line: Antagonist activity was determined against beta-1 adrenergic receptor in spontaneously beating rat atria. In kind it is functional.

Calls of active or inactive are those of the source. No cut-off for these calls is given here.

The values below come from ChEMBL document CHEMBL1123868, “Synthesis of a series of compounds related to betaxolol, a new beta 1-adrenoceptor antagonist with a pharmacological and pharmacokinetic profile optimized for the treatment of chronic cardiovascular diseases” (J Med Chem, 1987).

Sequence of Beta-1 adrenergic receptor (Rattus norvegicus) (P18090 whole entry, looked up): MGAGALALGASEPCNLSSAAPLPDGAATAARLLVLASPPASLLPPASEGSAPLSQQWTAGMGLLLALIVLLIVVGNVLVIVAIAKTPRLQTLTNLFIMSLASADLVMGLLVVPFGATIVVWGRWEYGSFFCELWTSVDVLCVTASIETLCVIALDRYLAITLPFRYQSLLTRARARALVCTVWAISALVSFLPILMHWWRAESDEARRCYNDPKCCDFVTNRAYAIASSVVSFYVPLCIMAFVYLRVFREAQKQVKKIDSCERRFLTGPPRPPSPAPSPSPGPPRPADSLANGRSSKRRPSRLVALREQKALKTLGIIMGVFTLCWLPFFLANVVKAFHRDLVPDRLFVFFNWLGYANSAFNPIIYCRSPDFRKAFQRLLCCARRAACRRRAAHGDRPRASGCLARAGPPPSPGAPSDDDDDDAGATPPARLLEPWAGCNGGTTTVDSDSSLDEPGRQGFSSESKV

Regarding `CC(C)NCC(O)COc1ccc(COCC2CC2)cc1` (stereo not given), the entries for the “Baseline systolic BP” value in the assay listed under Rattus norvegicus [1], in the assay filed under Rattus norvegicus [2] and in the assay filed under Rattus norvegicus [3] were -6%, -3% and -4%, respectively.
For the compound `CC(=O)Nc1ccc(OCC(O)CNC(C)C)cc1` (stereo not given) [PRACTOLOL], the Kb in assay [4] is 186 nM.
As for `CC(C)NCC(O)COc1ccc(CCOCC2CCCCC2)cc1.Cl` (stereo not given), the “Baseline systolic BP” value in the assay listed under Rattus norvegicus [1] was -7%; in the assay filed under Rattus norvegicus [2], -18%; in the assay listed under Rattus norvegicus [3], -14%.
For `CC(C)NC[C@H](O)COc1ccc(CCOCC2CC2)cc1` [LEVOBETAXOLOL], in that order: -13%, -12% and -10%.
For the compound `CC(C)NCC(O)COc1ccc(CCOC2CCCCC2)cc1` (stereo not given), the results for the “Baseline systolic BP” value in the assay filed under Rattus norvegicus [1], in the assay listed under Rattus norvegicus [2] and in the assay listed under Rattus norvegicus [3] were -12%, -2% and 4%, respectively.
On to `CC(C)NCC(O)COc1ccc(CCOC2CCCC2)cc1` (stereo not given), for which the “Baseline systolic BP” value in the assay listed under Rattus norvegicus [1] is reported as -4%; in the assay filed under Rattus norvegicus [2], -11%; in the assay listed under Rattus norvegicus [3], -17%.
The corresponding values for `CC(CCc1ccc(F)cc1)NCC(O)COc1ccc(CCOCC2CCC2)cc1` (stereo not given) are -2%, -10% and -4%.
Turning to `CC(C)NCC(O)COc1ccc(CCSCC2CCC2)cc1` (stereo not given), the figures for the “Baseline systolic BP” value in the assay filed under Rattus norvegicus [1], in the assay filed under Rattus norvegicus [2] and in the assay listed under Rattus norvegicus [3] were -3%, -6% and -2%, respectively.
For the compound `CC(C)NCC(O)COc1ccc(CCOC2CCCC2)cc1.Cl` (stereo not given), the “Baseline systolic BP” value in the assay filed under Rattus norvegicus [1] is -7%; in the assay filed under Rattus norvegicus [2], -16%; in the assay filed under Rattus norvegicus [3], -8%.
Consider `CC(C)NCC(O)COc1ccc(CCOCC2CC2)cc1.Cl` (stereo not given) [BETAXOLOL HYDROCHLORIDE], for which the “Baseline systolic BP” value in the assay filed under Rattus norvegicus [1] is given as -6%; in the assay filed under Rattus norvegicus [2] it was -19%; in the assay listed under Rattus norvegicus [3], -22%.
For the compound `CC(C)NCC(O)COc1ccc(CCCOCC2CCC2)cc1.O=C(O)C(=O)O` (stereo not given), the “Baseline systolic BP” value is -1% in the assay listed under Rattus norvegicus [1], -11% in the assay filed under Rattus norvegicus [2] and -11% in the assay listed under Rattus norvegicus [3].
For the compound `CC(C)NCC(O)COc1ccc(CCOCC2CC2)cc1` (stereo not given) [BETAXOLOL], the “Baseline systolic BP” value in the assay filed under Rattus norvegicus [1] is given as 3%; in the assay listed under Rattus norvegicus [2], 5%; in the assay listed under Rattus norvegicus [3], 3%.
Regarding `CC(C)NCC(O)COc1ccc(CCOCC2CCCC2)cc1` (stereo not given), the “Baseline systolic BP” value in the assay listed under Rattus norvegicus [1] was -8%; in the assay listed under Rattus norvegicus [2], -16%; in the assay filed under Rattus norvegicus [3] it was -21%.
Take `CC(C)NCC(O)COc1ccc(CCOCC2CCC2)cc1.Cl` (stereo not given): the “Baseline systolic BP” value in the assay filed under Rattus norvegicus [1] is -4%; in the assay listed under Rattus norvegicus [2], -16%; in the assay listed under Rattus norvegicus [3], -16%.
With `CC(C)NCC(O)COc1ccc(CCS(=O)(=O)CC2CCCCC2)cc1.Cl` (stereo not given), the “Baseline systolic BP” value was -2% in the assay filed under Rattus norvegicus [1], -2% in the assay filed under Rattus norvegicus [2] and -6% in the assay listed under Rattus norvegicus [3].
As to `COc1ccc(CCNCC(O)COc2ccc(CCOCC3CCC3)cc2)cc1OC.Cl` (stereo not given), the “Baseline systolic BP” value in the assay listed under Rattus norvegicus [1] was -6%; in the assay filed under Rattus norvegicus [2], -5%; in the assay listed under Rattus norvegicus [3], -7%.
In the case of `CC(=O)NCCNCC(O)COc1ccc(CCOCC2CCC2)cc1.Cl` (stereo not given), the figures for the “Baseline systolic BP” value in the assay filed under Rattus norvegicus [1], in the assay listed under Rattus norvegicus [2] and in the assay filed under Rattus norvegicus [3] were -7%, -8% and -6%, respectively.
The corresponding values for `COCCc1ccc(OCC(O)CNC(C)C)cc1` (stereo not given) [METOPROLOL] are -12%, -2% and 4%.
For `CC(CCc1ccccc1)NCC(O)COc1ccc(CCOCC2CCC2)cc1` (stereo not given), in that order: 2%, 1% and -1%.
For `CC(C)NCC(O)COc1ccc(C[S+]([O-])CC2CC2)cc1` (stereo not given), in that order: -2%, -8% and -4%.
Turning to `CC(C)NCC(O)COc1ccc(CCS(=O)(=O)CC2CCC2)cc1.Cl` (stereo not given), the “Baseline systolic BP” value in the assay filed under Rattus norvegicus [1] is recorded as 1%; in the assay filed under Rattus norvegicus [2], -13%; in the assay listed under Rattus norvegicus [3], -4%.
Regarding `CC(C)NCC(O)COc1ccc(CCS(=O)(=O)CC2CCCO2)cc1.Cl` (stereo not given), the “Baseline systolic BP” value is reported as -3% in the assay listed under Rattus norvegicus [1], -16% in the assay listed under Rattus norvegicus [2] and -22% in the assay filed under Rattus norvegicus [3].
The corresponding values for `CC(C)NCC(O)COc1cccc2ccccc12` (stereo not given) [PROPRANOLOL] are -9%, 0% and 0%.
For `CC(C)NCC(O)COc1ccc(COCC2CCC2)cc1.Cl` (stereo not given), in that order: -1%, -6% and -9%.
For `CC(CC#N)NCC(O)COc1ccc(CCOCC2CCC2)cc1.Cl` (stereo not given), in that order: -2%, -4% and -2%.
Consider `CC(C)NCC(O)COc1ccc(C[S+]([O-])CC2CCCC2)cc1` (stereo not given), for which, in assay [5], the NA entry was “inactive”. In addition, the “Baseline systolic BP” value is on record as -1% in the assay listed under Rattus norvegicus [1], -7% in the assay filed under Rattus norvegicus [2] and -5% in the assay filed under Rattus norvegicus [3].
On to `Cl.OC(CNC1CC1)COc1ccc(CCOCC2CCC2)cc1` (stereo not given), for which the “Baseline systolic BP” value is given as 0% in the assay filed under Rattus norvegicus [1], -5% in the assay listed under Rattus norvegicus [2] and 0% in the assay listed under Rattus norvegicus [3].
